Measured values reported in patent US10668040B2, “Treatment of urea cycle disorders in neonates and infants” (Horizon Therapeutics, LLC, priority 2017, dated 2020).

System: UCD patients
Test: Example 3: TEAEs, serious and non-serious adverse events
Format: in vivo
Description: Sixteen newborn infants aged 0 to 27 days, and 10 infants and toddlers aged 28 days to 23 months received RAVICTI Oral Liquid administered just prior to breastfeeding or intake of formula or food. The recommended dosing regimen was 3-6 times per day depending on feeding schedule.
Number of Subjects with Treatment-Emergent Adverse Events (TEAEs), Serious TEAEs, Deaths, and Discontinuations Due to TEAEs
An adverse event (AE) is any untoward medical occurrence, whether or not the event is considered related to the study drug. A serious AE is any AE that: results in death; is life threatening; requires hospitalization or prolongation of existing hospitalization; results in disability/incapacity; is a congenital anomaly/birth defect; is an important medical event. TEAEs are defined as AEs with an onset date on or after the first dose of study medication until study discontinuation. The Investigator assessed the causal relationship of each TEAE to the study drug as not related, possibly related, or probably related. From the first dose of study treatment through 30 days after the final dose (mean [SD] duration of treatment was 9.13 [6.838] months).

In the case of `O=C(CCCc1ccccc1)OCC(COC(=O)CCCc1ccccc1)OC(=O)CCCc1ccccc1` [RAVICTI, benzenebutanoic acid, 1′,1″-(1,2,3-propanetriyl) ester], the “Number of Deaths (All Causes)” value (Age 0 to <2 Months) is reported as 0, the “Serious AE Ammonia Increased: Deaths causally related to treatment/all” value (Age 0 to <2 Months) is reported as 0/0 and the “Serious AE Ammonia Increased: Occurrences causally related to treatment/all” value (Age 0 to <2 Months) is reported as 0/0. For the same compound, the “Serious AE Apnoeic Attack: Deaths causally related to treatment/all” value (Age 0 to <2 Months) was 0/0, the “Serious AE Apnoeic Attack: Occurrences causally related to treatment/all” value (Age 0 to <2 Months) was 0/0 and the “Serious AE Asthma: Deaths causally related to treatment/all” value (Age 0 to <2 Months) was 0/0. The “Serious AE Asthma: Occurrences causally related to treatment/all” value (Age 0 to <2 Months) was 0/0, the “Serious AE Atelectasis: Deaths causally related to treatment/all” value (Age 0 to <2 Months) was 0/0 and the “Serious AE Atelectasis: Occurrences causally related to treatment/all” value (Age 0 to <2 Months) was 0/1. For the same compound, the “Serious AE Bacteraemia: Deaths causally related to treatment/all” value (Age 0 to <2 Months) was 0/0, the “Serious AE Bacteraemia: Occurrences causally related to treatment/all” value (Age 0 to <2 Months) was 0/1 and the “Serious AE Cellulitis: Deaths causally related to treatment/all” value (Age 0 to <2 Months) was 0/0. The “Serious AE Cellulitis: Occurrences causally related to treatment/all” value (Age 0 to <2 Months) was 0/1, the “Serious AE Croup infectious: Deaths causally related to treatment/all” value (Age 0 to <2 Months) was 0/0 and the “Serious AE Croup infectious: Occurrences causally related to treatment/all” value (Age 0 to <2 Months) was 0/1. For the same compound, the “Serious AE Cyanosis: Deaths causally related to treatment/all” value (Age 0 to <2 Months) was 0/0, the “Serious AE Cyanosis: Occurrences causally related to treatment/all” value (Age 0 to <2 Months) was 0/0 and the “Serious AE Dehydration: Deaths causally related to treatment/all” value (Age 0 to <2 Months) was 0/0. The “Serious AE Dehydration: Occurrences causally related to treatment/all” value (Age 0 to <2 Months) was 0/1, the “Serious AE Device related infection: Deaths causally related to treatment/all” value (Age 0 to <2 Months) was 0/0 and the “Serious AE Device related infection: Occurrences causally related to treatment/all” value (Age 0 to <2 Months) was 0/1. For the same compound, the “Serious AE Feeding Disorder: Deaths causally related to treatment/all” value (Age 0 to <2 Months) was 0/0, the “Serious AE Feeding Disorder: Occurrences causally related to treatment/all” value (Age 0 to <2 Months) was 0/1 and the “Serious AE Gastroenteritis: Deaths causally related to treatment/all” value (Age 0 to <2 Months) was 0/0. For the same compound, the “Serious AE Gastroenteritis: Occurrences causally related to treatment/all” value (Age 0 to <2 Months) was 0/0, the “Serious AE Hyperammonaemia: Deaths causally related to treatment/all” value (Age 0 to <2 Months) was 0/0 and the “Serious AE Hyperammonaemia: Occurrences causally related to treatment/all” value (Age 0 to <2 Months) was 0/7. The “Serious AE Influenza: Deaths causally related to treatment/all” value (Age 0 to <2 Months) was 0/0, the “Serious AE Influenza: Occurrences causally related to treatment/all” value (Age 0 to <2 Months) was 0/0 and the “Serious AE Lethargy: Deaths causally related to treatment/all” value (Age 0 to <2 Months) was 0/0. The “Serious AE Lethargy: Occurrences causally related to treatment/all” value (Age 0 to <2 Months) was 0/1, the “Serious AE Medical device site infection: Deaths causally related to treatment/all” value (Age 0 to <2 Months) was 0/0 and the “Serious AE Medical device site infection: Occurrences causally related to treatment/all” value (Age 0 to <2 Months) was 0/1. The “Serious AE Meningitis bacterial: Deaths causally related to treatment/all” value (Age 0 to <2 Months) was 0/0, the “Serious AE Meningitis bacterial: Occurrences causally related to treatment/all” value (Age 0 to <2 Months) was 0/1 and the “Serious AE Neutropenia: Deaths causally related to treatment/all” value (Age 0 to <2 Months) was 0/0. The “Serious AE Neutropenia: Occurrences causally related to treatment/all” value (Age 0 to <2 Months) was 0/1, the “Serious AE Peritonitis: Deaths causally related to treatment/all” value (Age 0 to <2 Months) was 0/0 and the “Serious AE Peritonitis: Occurrences causally related to treatment/all” value (Age 0 to <2 Months) was 0/0. For the same compound, the “Serious AE Pneumatosis intestinalis: Deaths causally related to treatment/all” value (Age 0 to <2 Months) was 0/0, the “Serious AE Pneumatosis intestinalis: Occurrences causally related to treatment/all” value (Age 0 to <2 Months) was 0/0 and the “Serious AE Pyrexia: Deaths causally related to treatment/all” value (Age 0 to <2 Months) was 0/0. For the same compound, the “Serious AE Pyrexia: Occurrences causally related to treatment/all” value (Age 0 to <2 Months) was 0/0, the “Serious AE Respiratory syncytial virus infection: Deaths causally related to treatment/all” value (Age 0 to <2 Months) was 0/0 and the “Serious AE Respiratory syncytial virus infection: Occurrences causally related to treatment/all” value (Age 0 to <2 Months) was 0/1. The “Serious AE Rhinovirus infection: Deaths causally related to treatment/all” value (Age 0 to <2 Months) was 0/0, the “Serious AE Rhinovirus infection: Occurrences causally related to treatment/all” value (Age 0 to <2 Months) was 0/0 and the “Serious AE Status asthmaticus: Deaths causally related to treatment/all” value (Age 0 to <2 Months) was 0/0. For the same compound, the “Serious AE Status asthmaticus: Occurrences causally related to treatment/all” value (Age 0 to <2 Months) was 0/0, the “Serious AE Tracheitis: Deaths causally related to treatment/all” value (Age 0 to <2 Months) was 0/0 and the “Serious AE Tracheitis: Occurrences causally related to treatment/all” value (Age 0 to <2 Months) was 0/1. The “Serious AE Upper respiratory tract infection: Deaths causally related to treatment/all” value (Age 0 to <2 Months) was 0/0, the “Serious AE Upper respiratory tract infection: Occurrences causally related to treatment/all” value (Age 0 to <2 Months) was 0/1 and the “Serious AE Urinary tract infection: Deaths causally related to treatment/all” value (Age 0 to <2 Months) was 0/0. The “Serious AE Urinary tract infection: Occurrences causally related to treatment/all” value (Age 0 to <2 Months) was 0/1, the “Serious AE Viral infection: Deaths causally related to treatment/all” value (Age 0 to <2 Months) was 0/0 and the “Serious AE Viral infection: Occurrences causally related to treatment/all” value (Age 0 to <2 Months) was 0/1. For the same compound, the “Serious AE Viral upper respiratory tract infection: Deaths causally related to treatment/all” value (Age 0 to <2 Months) was 0/0, the “Serious AE Viral upper respiratory tract infection: Occurrences causally related to treatment/all” value (Age 0 to <2 Months) was 0/0 and the “Serious AE Vomiting: Deaths causally related to treatment/all” value (Age 0 to <2 Months) was 0/0. The “Serious AE Vomiting: Occurrences causally related to treatment/all” value (Age 0 to <2 Months) was 0/2, the “Number of Deaths (All Causes)” value (Age 2 Months to <2 Years) was 1 and the “Serious AE Ammonia Increased: Deaths causally related to treatment/all” value (Age 2 Months to <2 Years) was 0/0. For the same compound, the “Serious AE Ammonia Increased: Occurrences causally related to treatment/all” value (Age 2 Months to <2 Years) was 0/1, the “Serious AE Apnoeic Attack: Deaths causally related to treatment/all” value (Age 2 Months to <2 Years) was 0/0 and the “Serious AE Apnoeic Attack: Occurrences causally related to treatment/all” value (Age 2 Months to <2 Years) was 0/2. The “Serious AE Asthma: Deaths causally related to treatment/all” value (Age 2 Months to <2 Years) was 0/0, the “Serious AE Asthma: Occurrences causally related to treatment/all” value (Age 2 Months to <2 Years) was 0/1 and the “Serious AE Atelectasis: Deaths causally related to treatment/all” value (Age 2 Months to <2 Years) was 0/0. The “Serious AE Atelectasis: Occurrences causally related to treatment/all” value (Age 2 Months to <2 Years) was 0/0, the “Serious AE Bacteraemia: Deaths causally related to treatment/all” value (Age 2 Months to <2 Years) was 0/0 and the “Serious AE Bacteraemia: Occurrences causally related to treatment/all” value (Age 2 Months to <2 Years) was 0/0. For the same compound, the “Serious AE Cellulitis: Deaths causally related to treatment/all” value (Age 2 Months to <2 Years) was 0/0, the “Serious AE Cellulitis: Occurrences causally related to treatment/all” value (Age 2 Months to <2 Years) was 0/0 and the “Serious AE Croup infectious: Deaths causally related to treatment/all” value (Age 2 Months to <2 Years) was 0/0. The “Serious AE Croup infectious: Occurrences causally related to treatment/all” value (Age 2 Months to <2 Years) was 0/1, the “Serious AE Cyanosis: Deaths causally related to treatment/all” value (Age 2 Months to <2 Years) was 0/0 and the “Serious AE Cyanosis: Occurrences causally related to treatment/all” value (Age 2 Months to <2 Years) was 0/2. The “Serious AE Dehydration: Deaths causally related to treatment/all” value (Age 2 Months to <2 Years) was 0/0, the “Serious AE Dehydration: Occurrences causally related to treatment/all” value (Age 2 Months to <2 Years) was 0/0 and the “Serious AE Device related infection: Deaths causally related to treatment/all” value (Age 2 Months to <2 Years) was 0/0. For the same compound, the “Serious AE Device related infection: Occurrences causally related to treatment/all” value (Age 2 Months to <2 Years) was 0/0 and the “Serious AE Feeding Disorder: Deaths causally related to treatment/all” value (Age 2 Months to <2 Years) was 0/0.
